Test results from article PMC9662162 (Insect biochemistry and molecular biology, 2022).
pKd: −log10 of the molar value. Like-named read-outs stand apart in the source and are kept apart here.

Tests used:
AnDar-D7L2 = AnDar-D7L2 (Anopheles darlingi, UniProt B6DDQ8); assay: biochemical; assay type: binding; details: for fold difference in binding tightness, serotonin vs tryptamine: ratio of KD values
Platelet-rich plasma = assay: Platelet aggregation assay in platelet-rich plasma; assay type: cell-based, human; details: protein 0.6, 2 and 6 μM
AnAtr-D7L1 = molecular target: T1, AnAtr-D7L1 (Anopheles atroparvus, UniProt A0A182IRF8); assay: ITC ligand binding to recombinant AnAtr-D7L1; details: for binding observed by ITC (in words): 30°C, 4 μM protein, 40 μM ligand
T1 sequence (A0A182IRF8 24-316): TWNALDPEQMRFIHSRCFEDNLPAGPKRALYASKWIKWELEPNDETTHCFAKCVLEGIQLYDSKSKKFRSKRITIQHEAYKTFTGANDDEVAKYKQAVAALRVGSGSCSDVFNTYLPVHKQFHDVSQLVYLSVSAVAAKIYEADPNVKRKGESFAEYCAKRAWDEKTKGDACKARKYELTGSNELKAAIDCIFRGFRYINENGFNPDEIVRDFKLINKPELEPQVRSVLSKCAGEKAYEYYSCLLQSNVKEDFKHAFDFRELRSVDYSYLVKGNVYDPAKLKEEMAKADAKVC

AnSt-D7L1 = details: ref Alvarenga et al., 2010; cited from earlier work
An. gambiae D7L3 = An. gambiae D7L3 (Anopheles gambiae, UniProt A0A1S4HE90); assay: biochemical; assay type: binding
D7CQS1 = molecular target: T2, D7CQS1 (Culex quinquefasciatus, UniProt Q6TS00); assay: ITC serotonin binding to recombinant D7CQS1; details: 30°C, 4 μM protein, 40 μM serotonin
T2 sequence (Q6TS00 19-161): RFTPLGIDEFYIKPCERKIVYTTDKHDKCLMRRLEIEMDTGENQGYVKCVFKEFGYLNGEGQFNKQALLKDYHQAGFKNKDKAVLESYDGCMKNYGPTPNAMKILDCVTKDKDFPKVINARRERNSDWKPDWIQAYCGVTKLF

AeD7S1 = molecular target: T3, AeD7S1 (Aedes aegypti, UniProt Q8T9T4); assay: ITC serotonin binding to recombinant AeD7S1; details: 30°C, 4 μM protein, 40 μM serotonin
T3 sequence (Q8T9T4 22-148): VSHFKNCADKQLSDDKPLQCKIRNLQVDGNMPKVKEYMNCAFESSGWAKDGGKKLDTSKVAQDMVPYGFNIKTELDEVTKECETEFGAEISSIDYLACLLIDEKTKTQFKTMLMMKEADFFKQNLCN

An. gambiae D7L3, sequence (A0A1S4HE90 27-354 limits assumed): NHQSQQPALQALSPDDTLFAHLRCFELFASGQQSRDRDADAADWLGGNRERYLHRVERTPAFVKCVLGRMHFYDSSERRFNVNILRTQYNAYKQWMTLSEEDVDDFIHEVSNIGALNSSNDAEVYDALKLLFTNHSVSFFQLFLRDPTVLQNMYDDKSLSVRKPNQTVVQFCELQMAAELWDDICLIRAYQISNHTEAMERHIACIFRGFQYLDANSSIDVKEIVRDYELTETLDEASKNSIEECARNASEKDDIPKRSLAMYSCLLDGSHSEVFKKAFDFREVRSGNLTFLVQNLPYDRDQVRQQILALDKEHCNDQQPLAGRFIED
AnDar-D7L2, sequence (B6DDQ8 21-317 limits assumed): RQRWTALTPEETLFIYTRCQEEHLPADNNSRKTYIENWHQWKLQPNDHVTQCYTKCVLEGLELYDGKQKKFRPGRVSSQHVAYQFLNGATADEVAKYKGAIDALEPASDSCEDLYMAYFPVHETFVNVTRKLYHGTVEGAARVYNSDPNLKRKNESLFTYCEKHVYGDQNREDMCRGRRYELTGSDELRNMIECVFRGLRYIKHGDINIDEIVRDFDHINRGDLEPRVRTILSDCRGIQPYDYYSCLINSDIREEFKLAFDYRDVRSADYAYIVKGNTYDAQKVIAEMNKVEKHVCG

NCC(O)c1ccc(O)cc1 (racemic) [octopamine, (±)-octopamine]
binding observed by ITC (in words) (AnDar-D7L2; ITC, 30°C): measurable

CCCCC/C=C\C\C=C/C=C/C=C/[C@@H](SC[C@H](N)C(=O)NCC(=O)O)[C@@H](O)CCCC(=O)O [LTD4]
binding observed by ITC (in words) (AnDar-D7L2): high affinity

AnDar-D7L2: recombinant two-domain D7 long form salivary protein from Anopheles darlingi (EU934268.1)
effect on ADP-induced platelet aggregation (Platelet-rich plasma; agonist ADP): did not inhibit
effect on platelet aggregation induced by U46619 (Platelet-rich plasma; agonist U46619): inhibits
effect on platelet aggregation induced by arachidonic acid (AA) (Platelet-rich plasma; agonist arachidonic acid): inhibits
effect on epinephrine-induced platelet aggregation (Platelet-rich plasma; agonist epinephrine): did not inhibit
effect on platelet aggregation induced by collagen (Platelet-rich plasma; collagen at low concentrations, 1 min preincubation): inhibits

NCCc1ccc(O)c(O)c1 [dopamine]
binding observed by ITC (in words) (AnDar-D7L2): measurable

CNC[C@H](O)c1ccc(O)c(O)c1 [epinephrine]
binding observed by ITC (in words) (AnDar-D7L2): No detectable binding

CCCCC/C=C\C\C=C/C=C/C=C/[C@@H](SC[C@H](N)C(=O)O)[C@@H](O)CCCC(=O)O [LTE4]
binding observed by ITC (in words) (AnDar-D7L2): high affinity

CCCCC[C@H](O)/C=C/[C@@H]1[C@@H](C/C=C\CCCC(=O)O)[C@H]2CO[C@@H]1C2 [U46619]
binding observed by ITC (in words) (AnAtr-D7L1): does not bind
binding observed by ITC (in words) (AnDar-D7L2): high affinity
binding (in words) (AnSt-D7L1): ability to bind

Nc1ncnc2c1ncn2[C@@H]1O[C@H](COP(=O)(O)OP(=O)(O)O)[C@@H](O)[C@H]1O [ADP]
binding observed by ITC (in words) (AnDar-D7L2; ITC, 30°C): inability to bind
binding observed by ITC (in words) (An. gambiae D7L3; ITC, 30°C, 4 μM protein, 40 μM ligand): none

NCCc1c[nH]c2ccccc12 [tryptamine]
binding observed by ITC (in words) (AnAtr-D7L1): equally high affinity
pKd (AnDar-D7L2): 6.29
fold difference in binding tightness, serotonin vs tryptamine (AnDar-D7L2; ITC): 30 fold

CCCCC/C=C\C[C@@H](O)/C=C/C=C/C=C\[C@@H](O)CCCC(=O)O [LTB4]
binding observed by ITC (in words) (AnAtr-D7L1): No binding was detected
binding observed by ITC (in words) (AnDar-D7L2): unable to bind

NC[C@H](O)c1ccc(O)c(O)c1 [norepinephrine, L(+)-norepinephrine]
binding observed by ITC (in words) (AnDar-D7L2; ITC, 30°C): measurable
pKd (An. gambiae D7L3): 5.60

CCCCC[C@H](O)/C=C/C=C\C/C=C\C/C=C\CCCC(=O)O [15-HETE]
binding observed by ITC (in words) (AnAtr-D7L1): No binding was detected

CCCCC/C=C\C\C=C/C=C/C=C/[C@@H](SC[C@H](NC(=O)CC[C@H](N)C(=O)O)C(=O)NCC(=O)O)[C@@H](O)CCCC(=O)O [LTC4]
binding observed by ITC (in words) (AnDar-D7L2): high affinity

NCCc1c[nH]c2ccc(O)cc12 [serotonin]
pKd (AnAtr-D7L1): ~8.52
serotonin binding by ITC (in words) (D7CQS1): Lack of serotonin binding
pKd (AnDar-D7L2): 7.77
fold difference in binding tightness, serotonin vs tryptamine (AnDar-D7L2; ITC): 30 fold
binding (in words) (AnSt-D7L1): does not bind
pKd (An. gambiae D7L3): 7.66
serotonin binding by ITC (in words) (AeD7S1): Lack of serotonin binding

CCCCC[C@H](O)/C=C/[C@@H]1[C@@H](C/C=C\CCCC(=O)O)[C@@H](O)C[C@H]1O [PGF2α]
binding observed by ITC (in words) (AnAtr-D7L1): No binding was detected

NCCc1c[nH]cn1 [histamine]
binding observed by ITC (in words) (AnDar-D7L2): No detectable binding
pKd (An. gambiae D7L3): 5.82
